These results are taken from PubChem BioAssay AID588840 (Broad Institute, 2011).

Structures are written as SMILES.

Tested on in the first experiment: not listed separately
Briefly: cytotoxicity in MDA231 breast tumor cells – cell-based, CellTiter-Glo luminescence, dry powder, set 2, dose response (AID 588840). To be noted: MDA-MB-231 viability, CellTiter-Glo luminescence, 72 h; at 32 µM (top of the series). On the technique in general: Cellular ATP, detected with luciferase, serves as a proxy for viable cell number.
For `O=C(/C=C/c1ccc(-c2ccccc2)cc1)NC1=NCCS1`, the viability fraction (lower = toxic) was 76.4%.

For the molecule `Cc1ccc(/C=C/C(=O)NC2=NCCS2)cc1`, the viability fraction (lower = toxic) is 114%.

With `CC(C)c1ccc(/C=C/C(=O)NC2=NCCS2)cc1`, the viability fraction (lower = toxic) is 34.6%.

As for `COc1ccc(/C=C/C(=O)NC2=NCCS2)c(OC)c1`, the viability fraction (lower = toxic) was found to be 118%.

Consider `O=C(NC1CCCC1)c1ccc(COc2ccccc2)o1`, for which the viability fraction (lower = toxic) was found to be 101%.

As to `Cc1csc(NC(=O)c2ccc(COc3ccccc3)o2)n1`, the viability fraction (lower = toxic) came to 72.4%.

In a further experiment the test system is MDA-MB-231 viability, CellTiter-Glo luminescence, 72 h. The description is as above.
Details: not given
The term AC50 denotes the concentration giving half of the maximal activity seen. As for `Cc1csc(NC(=O)c2ccc(COc3cccc(F)c3)o2)n1`, the AC50 was 480 nM.
